≈ marks a conversion by molar mass, not a printed value. Read-outs that look alike come from different tables or passages of the source.
How the values were obtained:
[1] = system: M. tuberculosis H37Rv; experiment: microbe, parasite or virus in culture; format: cell-based; conditions: Mycobacterium tuberculosis, read-out: Mtb MIC
[2] = system: HepG2 mammalian cells; format: cell-based; conditions: human
[3] = mice
[4] = physchem; format: physicochemical; conditions: pH 7.4
[5] = in vivo; conditions: female, C57BL/6j, mouse; for Vd / clearance / half-life: iv; for Cmax / Tmax: po
[6] = target: T1, InhA (Mycobacterium tuberculosis, UniProt P9WGR1); conditions: steady-state competition experiments
T1 sequence (P9WGR1 whole entry, looked up): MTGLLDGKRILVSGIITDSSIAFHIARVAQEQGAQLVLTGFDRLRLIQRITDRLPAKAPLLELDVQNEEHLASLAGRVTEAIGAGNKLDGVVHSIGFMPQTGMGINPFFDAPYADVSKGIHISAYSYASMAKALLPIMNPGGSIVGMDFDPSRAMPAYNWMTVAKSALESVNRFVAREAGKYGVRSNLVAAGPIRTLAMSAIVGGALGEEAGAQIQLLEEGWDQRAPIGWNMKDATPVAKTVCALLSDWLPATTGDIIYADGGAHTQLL

[7] = format: in vitro ADME; conditions: mouse liver microsomes
[8] = system: M. bovis BCG; format: cell-based
[9] = target: T1, InhA; experiment: biochemical
[10] = system: panel of Gram-positive and Gram-negative organisms; experiment: General antimicrobial activity assay; format: cell-based; conditions: read-out: Antibacterial panel (MIC)
[11] = target: human FAS (Homo sapiens, UniProt P49327); experiment: Selectivity against human FAS; format: biochemical
Sequence of human FAS (P49327 whole entry): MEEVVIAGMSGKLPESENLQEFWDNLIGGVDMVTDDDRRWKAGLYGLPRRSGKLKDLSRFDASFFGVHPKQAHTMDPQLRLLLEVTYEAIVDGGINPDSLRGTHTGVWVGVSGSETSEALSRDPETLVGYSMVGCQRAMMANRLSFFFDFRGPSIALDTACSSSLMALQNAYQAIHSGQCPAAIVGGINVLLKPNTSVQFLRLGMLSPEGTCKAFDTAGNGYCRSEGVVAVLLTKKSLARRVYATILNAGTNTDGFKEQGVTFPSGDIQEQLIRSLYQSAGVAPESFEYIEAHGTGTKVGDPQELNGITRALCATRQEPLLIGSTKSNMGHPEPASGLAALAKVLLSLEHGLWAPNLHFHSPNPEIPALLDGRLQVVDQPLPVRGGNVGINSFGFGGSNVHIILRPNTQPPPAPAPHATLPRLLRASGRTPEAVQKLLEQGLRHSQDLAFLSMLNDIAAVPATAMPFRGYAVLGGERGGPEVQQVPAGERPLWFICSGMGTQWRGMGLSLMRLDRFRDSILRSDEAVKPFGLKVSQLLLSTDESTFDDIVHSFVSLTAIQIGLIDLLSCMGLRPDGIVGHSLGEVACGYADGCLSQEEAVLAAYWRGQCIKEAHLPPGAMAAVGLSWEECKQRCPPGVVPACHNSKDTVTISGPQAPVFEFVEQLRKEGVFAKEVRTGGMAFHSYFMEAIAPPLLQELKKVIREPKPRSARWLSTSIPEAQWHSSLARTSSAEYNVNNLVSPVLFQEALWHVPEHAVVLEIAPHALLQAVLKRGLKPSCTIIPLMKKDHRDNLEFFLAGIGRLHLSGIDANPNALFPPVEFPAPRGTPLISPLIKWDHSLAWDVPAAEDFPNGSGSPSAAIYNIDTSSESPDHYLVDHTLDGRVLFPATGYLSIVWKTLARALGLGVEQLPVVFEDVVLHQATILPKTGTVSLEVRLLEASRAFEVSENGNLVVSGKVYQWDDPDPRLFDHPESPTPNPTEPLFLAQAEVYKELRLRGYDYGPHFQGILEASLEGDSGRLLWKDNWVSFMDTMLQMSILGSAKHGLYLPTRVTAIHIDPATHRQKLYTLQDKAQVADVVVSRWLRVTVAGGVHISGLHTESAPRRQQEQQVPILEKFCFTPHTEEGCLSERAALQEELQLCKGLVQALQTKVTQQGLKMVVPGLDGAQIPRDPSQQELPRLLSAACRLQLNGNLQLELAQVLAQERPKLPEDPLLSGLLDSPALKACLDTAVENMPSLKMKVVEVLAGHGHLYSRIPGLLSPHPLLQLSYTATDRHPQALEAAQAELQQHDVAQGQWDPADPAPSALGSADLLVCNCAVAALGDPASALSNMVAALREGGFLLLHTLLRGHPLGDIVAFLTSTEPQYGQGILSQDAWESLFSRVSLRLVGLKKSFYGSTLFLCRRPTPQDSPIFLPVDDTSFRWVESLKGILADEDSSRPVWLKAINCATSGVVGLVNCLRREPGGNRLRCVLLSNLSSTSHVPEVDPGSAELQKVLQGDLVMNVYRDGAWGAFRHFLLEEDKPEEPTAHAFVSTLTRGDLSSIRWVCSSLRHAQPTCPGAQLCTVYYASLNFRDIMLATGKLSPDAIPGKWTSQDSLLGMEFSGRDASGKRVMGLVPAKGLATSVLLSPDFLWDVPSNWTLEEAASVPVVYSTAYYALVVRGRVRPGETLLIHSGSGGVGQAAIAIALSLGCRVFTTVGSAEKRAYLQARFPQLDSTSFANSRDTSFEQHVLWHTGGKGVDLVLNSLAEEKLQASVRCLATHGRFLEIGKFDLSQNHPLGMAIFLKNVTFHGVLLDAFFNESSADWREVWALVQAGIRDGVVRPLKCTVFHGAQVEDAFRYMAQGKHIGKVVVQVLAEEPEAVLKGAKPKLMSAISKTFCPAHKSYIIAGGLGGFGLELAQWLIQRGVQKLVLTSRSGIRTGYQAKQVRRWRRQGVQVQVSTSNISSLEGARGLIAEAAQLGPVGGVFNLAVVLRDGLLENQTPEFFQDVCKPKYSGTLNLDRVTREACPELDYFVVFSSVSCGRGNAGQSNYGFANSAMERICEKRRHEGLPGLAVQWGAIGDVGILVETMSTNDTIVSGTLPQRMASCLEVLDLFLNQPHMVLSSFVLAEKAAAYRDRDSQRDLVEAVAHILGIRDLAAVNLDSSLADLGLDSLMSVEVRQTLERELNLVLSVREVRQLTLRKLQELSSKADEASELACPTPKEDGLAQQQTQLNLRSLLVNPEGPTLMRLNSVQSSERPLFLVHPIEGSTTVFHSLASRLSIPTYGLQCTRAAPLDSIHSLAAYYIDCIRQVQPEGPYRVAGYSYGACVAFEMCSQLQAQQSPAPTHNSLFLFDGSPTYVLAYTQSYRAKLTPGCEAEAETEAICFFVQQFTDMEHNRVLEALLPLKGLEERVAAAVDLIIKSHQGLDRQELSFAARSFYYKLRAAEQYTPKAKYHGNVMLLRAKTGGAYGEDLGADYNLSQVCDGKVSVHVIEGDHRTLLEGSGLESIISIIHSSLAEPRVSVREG

[12] = format: in vitro ADME; conditions: human liver microsomes
[13] = system: M. tuberculosis H37Rv; experiment: microbe, parasite or virus in culture; format: cell-based; conditions: Mycobacterium tuberculosis, read-out: Mtb intracell MIC
[14] = system: GFP expressing MTB; experiment: Single-cell time-lapse imaging in microfluidic device; format: cell-based, M. tuberculosis
[15] = system: Memb.; Nucleus; Mitoch.; format: cell-based
[16] = target: hERG potassium channel (Homo sapiens, UniProt Q12809); experiment: cell-based
Sequence of hERG potassium channel (Q12809 whole entry): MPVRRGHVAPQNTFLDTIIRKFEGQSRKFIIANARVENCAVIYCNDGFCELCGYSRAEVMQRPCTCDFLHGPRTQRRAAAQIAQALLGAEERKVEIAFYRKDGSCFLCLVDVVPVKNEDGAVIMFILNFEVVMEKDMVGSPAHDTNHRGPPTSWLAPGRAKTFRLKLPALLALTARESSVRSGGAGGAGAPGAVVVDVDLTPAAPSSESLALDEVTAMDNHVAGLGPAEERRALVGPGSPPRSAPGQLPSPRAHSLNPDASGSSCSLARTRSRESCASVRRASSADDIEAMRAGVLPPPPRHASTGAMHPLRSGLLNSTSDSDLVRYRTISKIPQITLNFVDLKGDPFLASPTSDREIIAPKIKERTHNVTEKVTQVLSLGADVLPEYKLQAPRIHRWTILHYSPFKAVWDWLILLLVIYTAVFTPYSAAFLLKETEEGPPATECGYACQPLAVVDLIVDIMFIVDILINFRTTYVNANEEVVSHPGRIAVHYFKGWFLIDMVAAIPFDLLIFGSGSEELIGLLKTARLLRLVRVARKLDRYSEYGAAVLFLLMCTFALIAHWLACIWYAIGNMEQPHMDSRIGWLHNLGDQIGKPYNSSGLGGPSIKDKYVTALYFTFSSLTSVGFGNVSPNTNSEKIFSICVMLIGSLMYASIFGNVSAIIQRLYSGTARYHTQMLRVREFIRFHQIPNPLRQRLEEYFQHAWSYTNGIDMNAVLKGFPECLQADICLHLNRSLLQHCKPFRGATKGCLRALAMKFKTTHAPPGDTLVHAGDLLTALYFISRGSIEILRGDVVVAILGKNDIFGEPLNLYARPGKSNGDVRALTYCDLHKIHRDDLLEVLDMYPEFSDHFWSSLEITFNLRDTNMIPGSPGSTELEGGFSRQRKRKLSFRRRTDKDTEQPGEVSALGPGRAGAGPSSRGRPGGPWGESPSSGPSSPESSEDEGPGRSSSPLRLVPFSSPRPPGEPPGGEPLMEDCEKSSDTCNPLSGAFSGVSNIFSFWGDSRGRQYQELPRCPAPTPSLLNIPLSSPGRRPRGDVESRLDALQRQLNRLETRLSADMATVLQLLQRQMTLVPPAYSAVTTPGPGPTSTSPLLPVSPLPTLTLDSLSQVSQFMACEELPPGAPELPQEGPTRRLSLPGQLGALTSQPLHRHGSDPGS

[17] = system: M. tuberculosis H37Rv; conditions: acute model
[18] = genetic toxicity
[19] = format: in vivo, C57BL/6 mice; conditions: mice
[20] = target: CYP 3A4 (Homo sapiens, UniProt P08684); experiment: biochemical
Sequence of CYP 3A4 (P08684 whole entry): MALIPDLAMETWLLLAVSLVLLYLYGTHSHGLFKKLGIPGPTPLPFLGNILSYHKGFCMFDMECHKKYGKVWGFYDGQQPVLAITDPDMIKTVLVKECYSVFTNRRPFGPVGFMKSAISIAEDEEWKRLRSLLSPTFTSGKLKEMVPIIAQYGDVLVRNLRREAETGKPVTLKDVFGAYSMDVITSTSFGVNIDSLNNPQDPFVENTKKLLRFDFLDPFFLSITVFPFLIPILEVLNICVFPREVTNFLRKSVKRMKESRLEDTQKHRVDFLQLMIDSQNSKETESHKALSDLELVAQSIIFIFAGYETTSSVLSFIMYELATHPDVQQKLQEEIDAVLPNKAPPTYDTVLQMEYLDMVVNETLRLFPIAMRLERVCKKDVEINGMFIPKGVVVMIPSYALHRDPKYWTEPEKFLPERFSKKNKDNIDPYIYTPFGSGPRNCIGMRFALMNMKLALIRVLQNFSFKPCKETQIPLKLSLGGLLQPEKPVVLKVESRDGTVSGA

[21] = system: M. tuberculosis; conditions: chronic model, 25 mg/kg, 2-month treatment
[22] = 5 μM, propidium iodide end point

## Cc1ccn(C(C)c2nnc(Nc3ccn(Cc4c(F)cccc4Cl)n3)s2)n1 (stereo not shown) [GSK613, N-(1-(2-chloro-6-fluorobenzyl)-1H-pyrazol-3-yl)-5-(1-(3-methyl-1H-pyrazol-1-yl)ethyl)-1,3,4-thiadiazol-2-amine]
[1]
  MIC: ≤ 1 µM
[2]
  HepG2 cytotoxicity Tox 50: > 100 µM
[3]; Table 1 hits
  DNAUC (dose normalized exposure): 5 ng·h/ml per mg/kg
[4]
  solubility: 10 µM (≈ 4.18 µg/mL)
[5]; 0.5 mg/kg
  Vd: 2.5 L/kg
  clearance: 157 mL/min/kg
  half-life: 18 min
[5]; 50 mg/kg
  Cmax: 94.3 ng/mL
  Tmax: 45 min
[6]
  Mode of inhibition versus NADH: uncompetitive with NADH
  Mode of inhibition versus fatty acid substrate: competes with the fatty acid substrate
[7]
  In vitro Cli mouse: 11.9 mL/min/g
[8]
  Shift in MIC in strains overexpressing the target: ≥ 4 fold
[9]
  IC50: 0.007 µM
[10]
  MIC: ≥ 64 µg/mL
[11]
  Activity against human FAS: inactive
[12]
  In vitro Cli human: 2.9 mL/min/g

## Cc1csc([C@](C)(O)c2nnc(Nc3ccn(Cc4csc(C)n4)n3)s2)n1 [GSK693, (S)-1-(4-methylthiazol-2-yl)-1-(5-((1-((2-methylthiazol-4-yl)methyl)-1H-pyrazol-3-yl)amino)-1,3,4-thiadiazol-2-yl)ethanol]
[13]
  MIC: 0.2 µM (≈ 0.0839 µg/mL)
[14]; 5 μM GSK693 for 10 days, N = 32 microcolonies
  Total fraction of cells undergoing lysis: 53 ± 20%
[14]; 5 μM for 10 days, washout 7 days
  Regrowth after washout of the drug: None of the intact bacteria exhibited regrowth
[14]; [22]
  Intact cells PI-positive after exposure: About 22%
  Intact cells still able to exclude PI: 78%
[15]
  Cell Health (Memb.; Nucleus; Mitoch. ): > 199.5 µM
[16]
  IC50: > 50 µM
[1]
  MIC: 0.2 µM (≈ 0.0839 µg/mL)
[2]
  HepG2 cytotoxicity Tox 50: > 50 µM
[3]; Table 3 lead
  DNAUC: 935.8 ng·h/ml per mg/kg
[4]
  solubility: 413 µM (≈ 173 µg/mL)
[17]; 100 mg/kg oral
  Bacterial load reduction: 4 log10 colony forming units (CFU) per lung
[17]; oral 30, 100 and 300 mg/kg, P < 0.001
  Clearance of bacilli (Log CFU): significant clearance of bacilli compared with the controls
[5]; 4 mg/kg
  Vd: 2.58 L/kg
  clearance: 83 mL/min/kg
  half-life: 56.4 min
[5]; 100 mg/kg
  Cmax: 37300 ng/mL
  Tmax: 25.2 min
[7]
  In vitro Cli mouse: 2.1 mL/min/g
[9]
  IC50: 0.007 µM
[12]
  In vitro Cli human: 0.2 mL/min/g
[18]
  Ames test: Negative
[19]
  Maximal no lethal dose (MNLD): higher than 1000 mg/kg
[20]; CYP 3A4 IC50 VG, VG substrate
  IC50: 25.1 µM
[20]; CYP 3A4 IC50 VR, VR substrate
  IC50: > 50.1 µM

## NNC(=O)c1ccncc1 [INH, isoniazid]
[14]; INH 0.5 µg/ml, N = 41 microcolonies
  Total fraction of cells undergoing lysis: 42 ± 15%
[21]; P < 0.001
  Clearance of bacilli (Log CFU): significant clearance of bacilli compared with the controls
[21]; P < 0.001, listed as isoniazid
  Clearance of bacilli (Log CFU): clear efficacy

## COc1c(N2C[C@@H]3CCCN[C@@H]3C2)c(F)cc2c(=O)c(C(=O)O)cn(C3CC3)c12 [moxifloxacin, reference compound]
[17]; 30 mg/kg
  Bacterial load reduction: 4 log10 colony forming units (CFU) per lung

Source: paper PMC4919555 (EBioMedicine, 2016)
